Assay results from US9486443B2, “Pharmaceutical composition for preventing or treating hypertriglyceridemia or hypertriglyceridemia-associated diseases” (priority 2011, dated 2016).

Experiments:
[1] = system: hypertriglyceridemia and hypercholesterolemia-induced animals; assay: Evaluation of triglyceride-inhibitory activities in hypertriglyceridemia and hypercholesterolemia-induced animals; type: in vivo, New Zealand White rabbits; details: oral, Formula 1 20 mg/kg/day, amlodipine 5 mg/kg/day; for average triglyceride concentration, 4 weeks: male rabbits on 0.5% cholesterol, 14% coconut oil diet, once per day for 4 weeks, fasted 12 to 16 hours
Source text: Male New Zealand White rabbits were used as a test animal. All animals, except for the G1 group animals (negative control group), were fed with an irradiation-sterilized hypertriglyceridemia and hypercholesterolemia diet, i.e., DYET #621082 (Purina #5321 chow with 0.5% cholesterol, 14% coconut oil & 2% Maltose Dextrin, Dyets, Inc., Bethlehem, Pa. 18017), which was purchased from Saeronbio Inc. In order to induce hypertriglyceridemia and hypercholesterolemia, the animals were supplied with the diet for more than 4 weeks. After collecting the blood samples from the animals, serum biochemical analyses were performed thereon. Animals showing significant changes in total cholesterol levels and triglyceride levels were selected, in comparison with the non-treated control group. The selected animals were divided into 4 groups on the basis of the total cholesterol levels and triglyceride levels, thereby all the groups having substantially equal average values in the total cholesterol levels and triglyceride levels. The test materials were dissolved in saline containing 0.5% carboxymethyl-cellulose sodium and 1% Tween 80 and then administered directly into the stomach using an oral syringe adapted with a latex catheter, once per day for 4 weeks. The test groups are as in the following Table 3.
The blood samples were collected through the jugular vein, from the animals at the day initiating the administration of the test material(s) (i.e., at the time of group-dividing, 0 week), and from the animals (which were fasted for 12 to 16 hours before collecting the blood) at 4 weeks after initiating the administration of the test material(s) (n=4-7).
The triglyceride concentrations in the hypertriglyceridemia and hypercholesterolemia-induced animals as in the above are presented in the following Table 4. The values in Table 4 represent average triglyceride concentrations (mg/dL) of the respective group.

[2] = system: hypercholesterolemia-induced animals; assay: Evaluation of triglyceride-inhibitory activities in hypercholesterolemia-induced animals; type: in vivo, New Zealand White rabbits; details: male rabbits on 1% cholesterol diet
Source text: Male New Zealand White rabbits were used as a test animal. All animals, except for the G1 group animals (negative control group, n=4), were fed with an irradiation-sterilized hypercholesterolemia diet, i.e., DYET #620007 (Purina #5321 chow with 1% cholesterol, Dyets, Inc., Bethlehem, Pa. 18017), which was purchased from Central Lab. Animal Inc. In order to induce hypercholesterolemia, the animals were supplied with the diet for more than 8 weeks. After collecting the blood samples from the animals, serum biochemical analyses were performed thereon. Animals having total cholesterol levels of approximately 870 mg/dL were selected as a hypercholesterolemia-induced animal. The test materials were dissolved in saline containing 0.5% carboxymethylcellulose sodium and 1% Tween 80 and then administered directly into the stomach using an oral syringe adapted with a latex catheter, once per day for 4 weeks. The test groups are as in the following Table 1. […] The values in Table 2 represent average triglyceride concentrations (mg/dL) of the respective group.

## CCOC(=O)C1=C(COCCN)NC(C)=C(C(=O)OC)C1c1ccccc1Cl (stereo not shown) [Amlodipine, reference compound]
[1]; 4 weeks, in comparison with the G2 group, once per day
  Percent inhibition of triglyceride in the blood: 17.9%
[1]
  average triglyceride concentration, 4 weeks: 268.0 mg/dL

## COc1cc(F)c(C(C)C)cc1-c1ccc(C(F)(F)F)cc1CN1C(=O)O[C@H](c2cc(C(F)(F)F)cc(C(F)(F)F)c2)[C@@H]1C [Compound of Formula 1, (4S,5R)-5-[3,5-bis(trifluoromethyl)phenyl]-3-({2-[4-fluoro-2-methoxy-5-(propan-2-yl)phenyl]-5-(trifluoromethyl)phenyl}methyl)-4-methyl-1,3-oxazolidin-2-one]
[1]; Oryctolagus cuniculus, 672 h, 4 weeks, in comparison with the G2 group, once per day, read-out: Percent inhibition of triglyceride in the blood
  inhibition at 20 mg/kg: 10.2%
[1]
  average triglyceride concentration, 4 weeks: 293.1 mg/dL
[2]; baseline sample (0 week), before administration, group average
  average triglyceride concentration, 0 week: 167.4 mg/dL
[2]; oral, once per day, 2 weeks after initiating administration, fasted 12 to 16 hours, Formula 1 20 mg/kg/day, amlodipine 5, fenofibrate 30
  average triglyceride concentration, 2 weeks: 255.8 mg/dL
[2]; oral, once per day, 4 weeks after initiating administration, fasted 12 to 16 hours, Formula 1 20 mg/kg/day, amlodipine 5, fenofibrate 30
  average triglyceride concentration, 4 weeks: 356.7 mg/dL
